Results reported in US6391892B1, “Naphthyl pharmaceutical compounds” (Eli Lilly and Company, priority 1995, dated 2002).

Test system: ovariectomized (OVX) female Sprague Dawley rats
Test: Osteoporosis Test Procedure (ovariectomized rat, femur density)
Assay type: in vivo
Details: orally administered in 20% hydroxypropyl cyclodextrin, daily for 35 days, compared to intact, vehicle treated controls
From the text: Seventy-five day old female Sprague Dawley rats (weight range of 200 to 225 g) are obtained from Charles River Laboratories (Portage, Mich.). The animals are either bilaterally ovariectomized (OVX) or exposed to a Sham surgical procedure at Charles River Laboratories, and then shipped after one week. Upon arrival, they are housed in metal hanging cages in groups of 3 or 4 per cage and have ad libitum access to food (calcium content approximately 0.5%) and water for one week. Room temperature is maintained at 22.2°±1.70° C. with a minimum relative humidity of 40%. The photoperiod in the room is 12 hours light and 12 hours dark.
After a one week acclimation period (therefore, two weeks post-OVX) daily dosing with test compound is initiated. […] The animals are then sacrificed by asphyxiation with CO2, the uterus is removed through a midline incision, and a wet uterine weight is determined.
Following the General Preparation Procedure, infra, the rats are treated daily for 35 days (6 rats per treatment group) and sacrificed by carbon dioxide asphyxiation on the 36th day. The 35 day time period is sufficient to allow maximal reduction in bone density, measured as described herein. […]
The right femurs are excised and digitilized x-rays generated and analyzed by an image analysis program (NIH image) at the distal metaphysis. […]

C#C[C@]1(O)CC[C@H]2[C@@H]3CCc4cc(O)ccc4[C@H]3CC[C@@]21C [ethynyl estradiol, 17α-ethynyl estradiol]
reduction in femur density caused by ovariectomy: prevented this loss
